{"source": "patent US20130281497A1", "about": "“MACROCYCLIC COMPOUNDS AND METHODS OF TREATMENT” (University of Florida Research Foundation, Inc., priority 2010, published 2013)", "key": {"[1]": {"test_system": "C2C12 cells", "experiment": "mRNA induction of osteoblastogenesis markers and BMPs by quantitative real-time PCR", "format": "cell-based", "details": "for ALP mRNA level, fold change relative to the control / BMP-2 mRNA level, fold change relative to the control / BMP-4 mRNA level, fold change relative to the control / BMP-6 mRNA level, fold change relative to the control / BMP-7 mRNA level, fold change relative to the control / BMP-9 mRNA level, fold change relative to the control / OPN mRNA level, fold change relative to the control / RUNX2 mRNA level, fold change relative to the control: 6 days, C2C12 cells, mean ± SD", "protocol": "Primers were designed using an on-line primer design program (Table 1). (S. Rozen, H. J. Skaletsky, Methods Mol. Biol. 2000, 132, 365-386.) Total RNA was isolated using TRIzol reagent (Life Technologies, MD) according to manufacturer's protocol. The concentration and purity of total RNA were calculated by measuring absorbance at 260 and 280 nm. First strand cDNA was synthesized using 2 μg of total RNA and 1 μM of oligo-dT18 primer and Omniscript Reverse Transcriptase (Qiagen, CA). SYBR green-based quantitative PCR was performed using the Stratagene Mx3000P Real-Time PCR system and Brilliant SYBR Green Master Mix (Stratagene, CA) with 3 μl of first-strand cDNA diluted 1:50 and 20 pmole of primers, according to the manufacturer's protocols. The PCR reaction consisted of three segments. The first segment (95° C. for 10 min) activated the polymerase; the second segment included 3-step cycling (40 cycles) at 94° C. for 40 sec (denaturation), 60° C. for 40 sec (annealing), and 72° C. for 1 min (extension); the third segment was performed to generate PCR product temperature dissociation curves (‘melting curves’) at 95° C. for 1 min, 55° C. for 30 sec, 95° C. for 30 sec. All reactions were run in triplicate, and data were analyzed by the 2^−ΔΔCT method (K. J. Livak, T. D. Schmittgen, Methods 2001, 25, 402-408.). GAPDH was used as the control gene. Significance was determined by Student's t-test with GAPDH-normalized 2^−ΔΔCT values. Differences were considered significant when P<0.05."}, "[2]": {"test_system": "Runx2", "experiment": "Runx2 luciferase reporter assay (p6xOSE2-luc)", "format": "cell-based", "protocol": "FIG. 1. depicts activity of compound I (LA-1) and compound 8 (LA-3) on osteoblast differentiation. FIG. 1: (A) The effects of test compounds (up to 500 nM) on osteoblast differentiation were evaluated by ALP staining. (B) The effect of test compounds (up to 50 nM) on osteoblast differentiation were evaluated by ALP staining. MS-275 was used as a positive control. The effects of test compounds on cell viability (C) and RUNX2 activity (D) were evaluated by CCK-8 assay and 6×OSE2-luciferase activity assay, respectively.\nTo measure Runx2 activity, p6×osteoblast-specific cis-acting element (OSE) 2-luc reporter vector was transiently transfected into C2C12 cells that were seeded in a 96-well plate at 5×10^3 cells/well as described previously (Kim et al., J. Cell Biochem. 2004, 9, 1239-1247). After 24 h, medium was replaced with DMEM containing 5% FBS with or without tanshinone IIA and/or BMP-2. After 24 h, the cells were lysed, and luciferase activity was measured using luciferase reporter assay system (Promega) and the Wallac EnVision microplate reader."}, "[3]": {"test_system": "calvaria bone", "experiment": "In vivo bone regeneration model (calvaria bone defects)", "design": "species or system rabbits", "protocol": "All rabbits are anesthetized with an intramuscular dose of 0.1 ml/kg Zoletil (Virbac, France). The head is shaved, and the cutaneous surface is disinfected with povidone iod solution prior to the operation. The calvaria bone is exposed through a skin incision of ˜4 cm in length. Four similar circular bicortical defects (3-mm diameter) are made in the parietal bone using a trephine on a slow-speed electric handpiece, applying 0.9% physiologic saline irrigation. Defects are filled with 10 mg of bone graft substitute, MBCP (Biomatlante, France) soaked with 50 μl of PBS or LA-1. Closure of periosteum and subcutaneous tissues is done with lactomer (Syneture), while the skin is relocated with nylon:polyamide (Syneture). Postoperative antibiotics are administered, e.g., Gentamycin. Rabbits are sacrificed at 4 weeks after surgery."}, "[4]": {"test_system": "RAW264.7 cells", "experiment": "Osteoclastogenesis (RANKL-induced TRAP activity, multinucleated osteoclasts)", "format": "cell-based", "protocol": "FIG. 2 depicts activity of compound I (LA-1) and compound 8 (LA-3) on osteoclastogenesis. FIG. 2: (A) Effects of test compounds on the RANKL-induced TRAP activity. (B) Effects of test compounds on the RANKL-induced formation of TRAP-positive multinucleated osteoclasts. Effects of test compounds on osteoclast differentiation was evaluated in RAW264.7 cells. RAW264.7 cells were plated in 96-well plates at the density 1×10^3 and then serially diluted LA compounds were treated and incubated until multinucleated osteoclasts were observed under a microscope.\nRAW264.7 cells were purchased from the ATCC and maintained in DMEM supplemented with 10% FBS, 100 U/ml of penicillin, and 100 μg/ml streptomycin with a change of medium every 3 days in humidified atmosphere of 5% CO2 in air at 37° C. For the osteoclast differentiation, RAW264.7 cells were suspended in α-minimal essential medium (α-MEM) supplemented with 10% FBS and 100 ng/ml RANKL (R&D Systems Inc., MN) and plated in a 96-well plate at 1×10^3 cells/well. The next day, cells were treated with largazole and then after an additional 3 days, multinucleated osteoclasts were observed.\nMultinucleated osteoclasts were fixed with 10% formalin for 10 min and ethanol/acetone (1:1) for 1 min, and then stained by Leukocyte Acid Phosphatase Kit 387-A (Sigma, Mo.). […] Absorbance was measured at 410 nm, and TRAP activity was presented as % of control. […]"}, "[5]": {"test_system": "calvarial bones of mice", "experiment": "In vivo murine calvarial bone formation assay", "protocol": "In vivo bone-forming activity of largazole was evaluated using lyophilized collagen sponges as described previously. […] Three weeks after drug implantation, the calvarias were harvested, fixed in 4% paraformaldehyde, decalcified in 12% EDTA, embedded in paraffin, and sectioned. Sections were deparaffinized through graded xylene washes, […] in a graded series of ethanol washes, and stained with hematoxylin and eosin (H&E)."}}, "note": "Marks after values point to notes of the source that are not given here.", "data": [{"smiles": "CCCCCCCC(=O)SCC/C=C/[C@@H]1CC(=O)NCc2nc(cs2)C2=N[C@@](C)(CS2)C(=O)N[C@@H](C(C)C)C(=O)O1", "note": "[Largazole, largazole]", "values": [{"measurement": "ALP mRNA level, fold change relative to the control", "setting": "[1]; largazole 1 nM", "result": "1.85 ± 0.06^a fold"}, {"measurement": "BMP-2 mRNA level, fold change relative to the control", "setting": "[1]; largazole 1 nM", "result": "2.15 ± 0.42^b fold"}, {"measurement": "BMP-4 mRNA level, fold change relative to the control", "setting": "[1]; largazole 1 nM", "result": "0.91 ± 0.22", "unit": "fold"}, {"measurement": "BMP-6 mRNA level, fold change relative to the control", "setting": "[1]; largazole 1 nM", "result": "1.69 ± 0.12^b fold"}, {"measurement": "BMP-7 mRNA level, fold change relative to the control", "setting": "[1]; largazole 1 nM", "result": "5.05 ± 0.31^c fold"}, {"measurement": "BMP-9 mRNA level, fold change relative to the control", "setting": "[1]; largazole 1 nM", "result": "5.18 ± 0.74^c fold"}, {"measurement": "OPN mRNA level, fold change relative to the control", "setting": "[1]; largazole 1 nM", "result": "1.33 ± 0.19", "unit": "fold"}, {"measurement": "RUNX2 mRNA level, fold change relative to the control", "setting": "[1]; largazole 1 nM", "result": "2.47 ± 0.39^b fold"}, {"measurement": "ALP mRNA level, fold change relative to the control", "setting": "[1]; largazole 50 nM", "result": "324.04 ± 1.59^c fold"}, {"measurement": "BMP-2 mRNA level, fold change relative to the control", "setting": "[1]; largazole 50 nM", "result": "6.29 ± 0.98^c fold"}, {"measurement": "BMP-4 mRNA level, fold change relative to the control", "setting": "[1]; largazole 50 nM", "result": "2.38 ± 0.91^a fold"}, {"measurement": "BMP-6 mRNA level, fold change relative to the control", "setting": "[1]; largazole 50 nM", "result": "7.15 ± 1.33^b fold"}, {"measurement": "BMP-7 mRNA level, fold change relative to the control", "setting": "[1]; largazole 50 nM", "result": "17.12 ± 2.59^c fold"}, {"measurement": "BMP-9 mRNA level, fold change relative to the control", "setting": "[1]; largazole 50 nM", "result": "12.14 ± 3.17^b fold"}, {"measurement": "OPN mRNA level, fold change relative to the control", "setting": "[1]; largazole 50 nM", "result": "2.28 ± 0.12^b fold"}, {"measurement": "RUNX2 mRNA level, fold change relative to the control", "setting": "[1]; largazole 50 nM", "result": "3.66 ± 1.19^a fold"}, {"measurement": "ALP mRNA level, fold change relative to the control", "setting": "[1]; largazole 100 nM", "result": "263.33 ± 11.61^b fold"}, {"measurement": "BMP-2 mRNA level, fold change relative to the control", "setting": "[1]; largazole 100 nM", "result": "6.34 ± 1.16^b fold"}, {"measurement": "BMP-4 mRNA level, fold change relative to the control", "setting": "[1]; largazole 100 nM", "result": "3.48 ± 1.63", "unit": "fold"}, {"measurement": "BMP-6 mRNA level, fold change relative to the control", "setting": "[1]; largazole 100 nM", "result": "8.37 ± 0.88^c fold"}, {"measurement": "BMP-7 mRNA level, fold change relative to the control", "setting": "[1]; largazole 100 nM", "result": "10.72 ± 1.90^c fold"}, {"measurement": "BMP-9 mRNA level, fold change relative to the control", "setting": "[1]; largazole 100 nM", "result": "10.18 ± 2.22^b fold"}, {"measurement": "OPN mRNA level, fold change relative to the control", "setting": "[1]; largazole 100 nM", "result": "0.83 ± 0.04^a fold"}, {"measurement": "RUNX2 mRNA level, fold change relative to the control", "setting": "[1]; largazole 100 nM", "result": "2.06 ± 0.00^c fold"}, {"measurement": "increase of Runx2 mRNA level relative to the DMSO control", "setting": "[1]; largazole at 50 nM, real-time PCR", "result": 3, "unit": "fold"}, {"measurement": "mRNA expression levels of BMPs (BMP-2, 4, 6, 7, and 9)", "setting": "[1]; real-time PCR", "result": "significantly induced"}, {"measurement": "activity of RUNX2 (6×OSE2-luciferase activity assay)", "setting": "[2]; FIG. 1D", "result": "strongly induced the activity of RUNX2"}, {"measurement": "increase of Runx2 activity relative to the DMSO control", "setting": "[2]; largazole at 50 nM, p6×OSE2-luciferase reporter", "result": 29, "unit": "fold"}, {"measurement": "anabolic bone forming activity in vivo", "setting": "[3]", "result": "exhibited anabolic bone forming activity"}, {"measurement": "inhibition of osteoclastogenesis", "setting": "[4]", "result": "potential to inhibit the osteoclastogenesis"}, {"measurement": "woven bone formation at lower (50 μM) versus higher (100 μM) concentration", "setting": "[5]; 50 μM compared with 100 μM, collagen sponge implant", "result": "more significant than that at the higher concentration"}, {"measurement": "woven bone formation over the periosteum of the calvarial bones", "setting": "[5]; collagen sponges soaked with largazole implanted, three weeks", "result": "induced woven bone formation"}]}]}
